Measurements as given in PubChem BioAssay AID330 (DTP/NCI, 2004).
Values joined by “and” are separate entries in the source; they are usually repeats but may differ in a detail not shown here. Equal entries are not always repeated. Toxic doses and inconclusive results are not listed. Rule for the calls: active = survival T/C of 150% or more; inactive = T/C below 125% in these data.

Tested on: P388 leukemia ip, CD2F1 mice, survival T/C
Assay: NCI In Vivo Anticancer Drug Screen. Data for tumor model P388 Leukemia (intraperitoneal) in CD2F1 (CDF1) mice
Conditions: endpoint: median survival time, higher = longer survival
Method in brief: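 Mice carrying the transplanted tumor received test compound or vehicle. Survival was recorded in each group, and the value is the treated-group measurement divided by that of the vehicle-treated control group.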

[1] = dose: 100.0 mg/kg/injection, schedule: Q01DX009 (ip), vehicle: saline
[2] = dose: 100.0 mg/kg/injection, schedule: Q04DX003 (ip), vehicle: Klucel (hydroxypropylcellulose) (HPC)
[3] = dose: 200.0 mg/kg/injection, schedule: Q04DX003 (ip), vehicle: Klucel (hydroxypropylcellulose) (HPC)
[4] = dose: 400.0 mg/kg/injection, schedule: Q04DX003 (ip), vehicle: Klucel (hydroxypropylcellulose) (HPC)
[5] = dose: 60.0 mg/kg/injection, schedule: Q01DX005 (ip), vehicle: saline with Tween-80
[6] = dose: 120.0 mg/kg/injection, schedule: Q01DX005 (ip), vehicle: saline with Tween-80
[7] = dose: 240.0 mg/kg/injection, schedule: Q01DX005 (ip), vehicle: saline with Tween-80
[8] = dose: 200.0 mg/kg/injection, schedule: Q01DX009 (ip), vehicle: saline with Tween-80
[9] = dose: 50.0 mg/kg/injection, schedule: Q01DX005 (ip), vehicle: Klucel (hydroxypropylcellulose) (HPC)
[10] = dose: 100.0 mg/kg/injection, schedule: Q01DX005 (ip), vehicle: Klucel (hydroxypropylcellulose) (HPC)
[11] = dose: 12.5 mg/kg/injection, schedule: Q01DX009 (ip), vehicle: saline with Tween-80
[12] = dose: 25.0 mg/kg/injection, schedule: Q01DX009 (ip), vehicle: saline with Tween-80
[13] = dose: 50.0 mg/kg/injection, schedule: Q01DX009 (ip), vehicle: saline with Tween-80
[14] = dose: 50.0 mg/kg/injection, schedule: Q01DX005 (ip), vehicle: saline with Tween-80
[15] = dose: 100.0 mg/kg/injection, schedule: Q01DX005 (ip), vehicle: saline with Tween-80
[16] = dose: 200.0 mg/kg/injection, schedule: Q01DX005 (ip), vehicle: saline with Tween-80
[17] = dose: 50.0 mg/kg/injection, schedule: Q01DX009 (ip), vehicle: Klucel (hydroxypropylcellulose) (HPC)

Measured: T/C

C[CH2][Sn]([CH2]C)([n]1cnc2ccccc21)[n]1cnc2ccccc21
inactive: dose: 1.56 mg/kg/injection, schedule: Q01DX005 (ip), vehicle: Klucel (hydroxypropylcellulose) (HPC) 120 % of control | dose: 3.12 mg/kg/injection, schedule: Q01DX005 (ip), vehicle: Klucel (hydroxypropylcellulose) (HPC) 123 % of control | dose: 6.25 mg/kg/injection, schedule: Q01DX005 (ip), vehicle: Klucel (hydroxypropylcellulose) (HPC) 109 % of control and 122 % of control

COC(=O)C(NC(=O)OCc1ccccc1)C(C)O (configuration not stated)
inactive: dose: 12.5 mg/kg/injection, schedule: Q01DX009 (ip), vehicle: distilled water + Tween-80 90 % of control | dose: 25.0 mg/kg/injection, schedule: Q01DX009 (ip), vehicle: distilled water + Tween-80 102 % of control | dose: 50.0 mg/kg/injection, schedule: Q01DX009 (ip), vehicle: distilled water + Tween-80 100 % of control | dose: 100.0 mg/kg/injection, schedule: Q01DX009 (ip), vehicle: distilled water + Tween-80 105 % of control | dose: 200.0 mg/kg/injection, schedule: Q01DX009 (ip), vehicle: distilled water + Tween-80 94 % of control

N=[N+]=CC(=O)CC(N)C(=O)O (configuration not stated)
inactive: [1] 117 % of control | dose: 100.0 mg/kg/injection, schedule: Q04DX003 (ip), vehicle: saline 92 % of control | dose: 200.0 mg/kg/injection, schedule: Q04DX003 (ip), vehicle: saline 100 % of control | dose: 400.0 mg/kg/injection, schedule: Q04DX003 (ip), vehicle: saline 100 % of control

CC12CCC(OC3OC(CO)C(O)C(O)C3O)CC1CCC1C2CCC2(C)C(c3ccc(=O)oc3)CCC12O (configuration not stated)
inactive: dose: 0.35 mg/kg/injection, schedule: Q01DX009 (ip), vehicle: saline 96 % of control | dose: 0.7 mg/kg/injection, schedule: Q01DX009 (ip), vehicle: saline 102 % of control | dose: 1.4 mg/kg/injection, schedule: Q01DX009 (ip), vehicle: saline 100 % of control

CS(=O)(=O)c1noc(N)n1
inactive: dose: 50.0 mg/kg/injection, schedule: Q01DX005 (ip), vehicle: saline 115 % of control | dose: 100.0 mg/kg/injection, schedule: Q01DX005 (ip), vehicle: saline 113 % of control | dose: 200.0 mg/kg/injection, schedule: Q01DX005 (ip), vehicle: saline 115 % of control

Cc1c[nH]c(=O)cn1
inactive: [2] 95 % of control | [3] 90 % of control | [4] 95 % of control

CC(=O)c1ccc[n+](Cc2c(Cl)cccc2Cl)c1
inactive: dose: 6.25 mg/kg/injection, schedule: Q01DX009 (ip), vehicle: saline 101 % of control | dose: 12.5 mg/kg/injection, schedule: Q01DX009 (ip), vehicle: saline 100 % of control and 104 % of control | dose: 25.0 mg/kg/injection, schedule: Q01DX009 (ip), vehicle: saline 101 % of control and 114 % of control

CCCSC(=O)Nc1ccc(Cc2ccc(NC(=O)SCCC)cc2)cc1
inactive: [5] 90 % of control | [6] 87 % of control | [7] 99 % of control

COc1cccc(CCl)c1
inactive: dose: 100.0 mg/kg/injection, schedule: Q01DX009 (ip), vehicle: saline with Tween-80 110 % of control and 118 % of control | [8] 117 % of control and 124 % of control

Nc1ccn(C2OC(COP(=O)(O)O)C(O)C2O)c(=O)n1 (configuration not stated) (tested in a mixture with another compound)
inactive: dose: 60.0 mg/kg/injection, schedule: Q01DX005 (ip), vehicle: Klucel (hydroxypropylcellulose) (HPC) 108 % of control | dose: 120.0 mg/kg/injection, schedule: Q01DX005 (ip), vehicle: Klucel (hydroxypropylcellulose) (HPC) 99 % of control | dose: 240.0 mg/kg/injection, schedule: Q01DX005 (ip), vehicle: Klucel (hydroxypropylcellulose) (HPC) 99 % of control

CC(=O)NC(CCS)C(N)=O (configuration not stated)
inactive: [9] 87 % of control | [10] 99 % of control | dose: 200.0 mg/kg/injection, schedule: Q01DX005 (ip), vehicle: Klucel (hydroxypropylcellulose) (HPC) 97 % of control

CC(=O)OC/C=C(\C)CC(/C=C(C)/C=C/C1=C(C)CCCC1(C)C)S(=O)(=O)c1ccccc1 (configuration not stated)
inactive: [11] 100 % of control | [12] 106 % of control | [13] 90 % of control and 93 % of control | [8] 92 % of control

[O-]/[N+]1=[N+](\[O-])c2ccccc2CCCc2ccccc21
inactive: [5] 102 % of control | [6] 100 % of control | [7] 88 % of control

CC(=O)OC1CC2C(=S)Nc3cc4c(cc3C(=O)N2C1)OCO4 (configuration not stated)
inactive: [14] 92 % of control | [15] 91 % of control | [16] 89 % of control

Nc1cccc2c1C(=O)c1ccc(C(=O)O)cc1C2=O
inactive: [9] 101 % of control | [10] 104 % of control

Cc1[nH]nc2c1NC(=O)OC(C)C2 (configuration not stated)
inactive: [14] 101 % of control | [15] 101 % of control | [16] 106 % of control

Nc1ccc(S(=O)(=O)c2cc(O)c3ccccc3c2O)cc1
inactive: [17] 104 % of control

O=S1CCCS(=O)C1c1ccccc1 (configuration not stated)
inactive: [5] 100 % of control | [6] 91 % of control | [7] 97 % of control

O=C1C2CCCN2C(=O)N1c1ccc([N+](=O)[O-])cc1 (configuration not stated)
inactive: dose: 100.0 mg/kg/injection, schedule: Q01DX001 (ip), vehicle: Klucel (hydroxypropylcellulose) (HPC) 97 % of control | dose: 200.0 mg/kg/injection, schedule: Q01DX001 (ip), vehicle: Klucel (hydroxypropylcellulose) (HPC) 97 % of control | dose: 400.0 mg/kg/injection, schedule: Q01DX001 (ip), vehicle: Klucel (hydroxypropylcellulose) (HPC) 99 % of control

O=c1oc2ccccc2c(O)c1C=Nc1ccccc1
inactive: [11] 89 % of control | [12] 88 % of control

CCCCCCCCCCCC(=O)NCCc1ccc(O)c(O)c1
inactive: dose: 25.0 mg/kg/injection, schedule: Q04DX003 (ip), vehicle: Klucel (hydroxypropylcellulose) (HPC) 113 % of control | dose: 50.0 mg/kg/injection, schedule: Q04DX003 (ip), vehicle: Klucel (hydroxypropylcellulose) (HPC) 115 % of control | [2] 119 % of control and 120 % of control | [3] 113 % of control and 120 % of control | [4] 89 % of control

O=C1CNC(=O)C(O)N1 (configuration not stated)
inactive: [14] 93 % of control | [15] 100 % of control | [16] 97 % of control

CC1(C)OC2OCCC(N=[N+]=[N-])C2O1 (configuration not stated)
inactive: [14] 96 % of control | [15] 96 % of control | [16] 94 % of control

O=C1CSc2ccccc2N1
inactive: dose: 6.25 mg/kg/injection, schedule: Q01DX009 (ip), vehicle: suspension in saline 102 % of control | dose: 12.5 mg/kg/injection, schedule: Q01DX009 (ip), vehicle: Klucel (hydroxypropylcellulose) (HPC) 105 % of control | dose: 12.5 mg/kg/injection, schedule: Q01DX009 (ip), vehicle: suspension in saline 104 % of control | dose: 25.0 mg/kg/injection, schedule: Q01DX009 (ip), vehicle: Klucel (hydroxypropylcellulose) (HPC) 97 % of control | dose: 25.0 mg/kg/injection, schedule: Q01DX009 (ip), vehicle: suspension in saline 99 % of control | [17] 88 % of control and 95 % of control | dose: 50.0 mg/kg/injection, schedule: Q01DX009 (ip), vehicle: suspension in saline 104 % of control | dose: 200.0 mg/kg/injection, schedule: Q01DX009 (ip), vehicle: Klucel (hydroxypropylcellulose) (HPC) 100 % of control | dose: 400.0 mg/kg/injection, schedule: Q01DX009 (ip), vehicle: Klucel (hydroxypropylcellulose) (HPC) 99 % of control

CN(C)P(=O)(N(C)C)N(C)CO
inactive: dose: 50.0 mg/kg/injection, schedule: Q01DX009 (ip), vehicle: saline 98 % of control and 100 % of control | [1] 104 % of control and 110 % of control | dose: 200.0 mg/kg/injection, schedule: Q01DX009 (ip), vehicle: saline 121 % of control and 122 % of control | dose: 400.0 mg/kg/injection, schedule: Q01DX009 (ip), vehicle: saline 86 % of control

CCOc1ccc(Nc2nc(C(Cl)(Cl)Cl)cc(C(Cl)(Cl)Cl)n2)cc1CN(CC)CC
inactive: dose: 6.25 mg/kg/injection, schedule: Q01DX009 (ip), vehicle: saline sonified 100 % of control | dose: 12.5 mg/kg/injection, schedule: Q01DX009 (ip), vehicle: saline sonified 100 % of control | dose: 25.0 mg/kg/injection, schedule: Q01DX009 (ip), vehicle: saline sonified 100 % of control

CC(C)=CCC1=CC(=O)C=CC1=O
inactive: dose: 6.25 mg/kg/injection, schedule: Q01DX009 (ip), vehicle: saline with Tween-80 98 % of control | [11] 99 % of control | [12] 107 % of control | [13] 114 % of control

Cn1c(=O)c2[nH]c(C3COCCO3)nc2n(C)c1=O (configuration not stated)
inactive: [5] 91 % of control | [7] 87 % of control
